The test system of the experiment is Lepeophtheirus salmonis (sea lice). In words: Sea lice bioassay, 24 hours exposure to test compound. Format: in vivo. As to conditions: predominantly pre-adult and adult stage, generally chemical resistant strain.

For the compound `CS(=O)(=O)CC(=O)N1CC2(C1)OCc1cc(C3=NOC(c4cc(Cl)c(F)c(Cl)c4)(C(F)(F)F)C3)ccc12` (centres unmarked) [Example 1], under “adult female sea lice”, the “Adult Females (EC50)” value amounted to 0.13 ppb. For the same compound, the “Adult Males (EC50)” value (adult male sea lice) is listed as 0.08 ppb.

The record behind these values is patent publication US20150223463A1, “SPIROCYCLIC ISOXAZOLINE DERIVATIVES FOR TREATMENT OF SEA LICE” (Zoetis LLC, priority 2012, published 2015).
